The source of these data is patent US20160367831A1, “IMPLANTABLE MEDICAL DEVICE, SYSTEM AND METHOD FOR INDUCING THROMBOSIS IN AN ARTERY OF A LIVING ANIMAL” (Chang Gung Memorial Hospital, Linkou, priority 2015, published 2016).

Holding throughout (assay type): in vivo, spontaneously hypertensive rat (SHR)
For assay [1], the system named is common carotid artery (CCA). As to the kind of experiment: LED photochemical thrombosis induction in the common carotid artery, ultrasound imaging. The following applies: for thrombosis formation in the CCA (ultrasound): no irradiation. The text has this:
A system for inducing thrombosis was provided, including an implantable medical device and an external power controller. The external power controller includes a Class-E amplifier and a resonant transmitting coil. The implantable medical device includes a resonant receiving coil (i.e., the wireless power receiver) and an LED assembly (i.e., the irradiation module) including a surface-mount device type LED (i.e., the light-emitting element) and a LED lens (i.e., the lens element) disposed on the LED. The LED assembly and the resonant receiving coil were hermetically packaged with polydimethylsiloxane (PDMS) (i.e., the encapsulator). An open ditch of approximately 2 mm in width and depth was made on the LED lens, and four cuts (i.e., the engaging groove) were formed on the PDMS. A male spontaneously hypertensive rat (SHR) (i.e., the living animal) was anesthetized with 3% isoflurane in a mixture of 30% oxygen and 70% nitrogen. After the administration of anesthesia, the rat was placed in a supine position. A 1 cm incision was made in the left inguinal area and the femoral vein was carefully dissected. A polyethylene tube to be used for rose bengal injection was inserted in the femoral vein via the dissected incision and secured using 3-0 nylon suture. […] Blunt dissection of the left common carotid artery (CCA) was performed. The CCA was placed into the ditch of the LED lens, and the implantable medical device was secured onto the CCA using 3-0 nylon suture (i.e., the securing strap) to engage the cuts on the PDMS. After the implantation procedure, the surgical wound was sutured and the rat was placed in a prone position near the transmitting coil of the external power controller. After isoflurane was decreased to 1%, rose bengal (Sigma-Aldrich, St. Louis, Mo., USA) was administrated intravenously at a dose of 60 mg/kg. Thereafter, the external power controller was powered to wirelessly drive the LED of the implantable medical device via the resonant receiving coil to irradiate the CCA at a wavelength of 540 nm. […] The LED light power was measured using a Nova handheld laser power meter (Ophir Optronics Solutions, Ltd., Israel). After irradiation, the implantable medical device was removed and the wound was sutured using 3-0 nylon. Ultrasound images of the CCA prior to irradiation (Pre OP), immediately after irradiation (Post OP), 3 days after irradiation (Post OP 3d), and 7 days after irradiation (Post OP 7d) were captured and are shown in FIG. 6.

In assay [2] the test system is common carotid artery (CCA). Nature of the assay: Magnetic Resonance Angiography (MRA) examination of the CCAs. Conditions: Example 3: intermittent 4.5 mW/cm2 LED. On the procedure:
Serial in vivo MRA examination was performed on the CCAs of Example 3 and Comparative Example 2, and the typical MR imaging (MRI) experimental scheme of the time sequence is shown in FIG. 9. Images were acquired using a 7T MRI system (ClinScan 70/30 USR) (Bruker, Rheinstetten, Germany) with a linear body coil. The rat was anaesthetized with 1.5% isoflurane and connected to a respiratory rate monitor. The flow of anesthetic gas was constantly regulated to maintain the breathing rate at approximately 40/min. MRA of the CCAs was performed using the time-of-flight (TOF) method without a contrast agent. Transverse slices (panels (a) to (d) of FIG. 9) were acquired with a fast, low-angle shot (FLASH) using the following parameters: TR=22 ms, TE=4.87 ms, pulse angle=90 degrees, field of view (FQV)=55×42 mm2, and matrix size=58×256. T2-weighted images (panels (e) to (f) of FIG. 9) were acquired using a turbo spin-echo sequence and using the following parameters: TR=2900 ms, TE=37 ms, turbo factor=7, FOV=45×45 mm2, slice thickness=1 mm, and matrix size=240×320. The imaged area covered the CCAs, the carotid bifurcation, the internal carotid artery, and the external carotid artery. Contiguous cross-sectional images were obtained perpendicular to the long axis of the neck. Thrombus formation in the CCAs of Example 3 and Comparative Example 2 was observed by MRA and coronal sequential MR images. […] Because the blood flow of the CCA of Example 3 was disrupted by thrombus, MRA of the CCA of Example 3 was not as bright as the MRA of the CCA of Comparative Example 2 (panel (b) of FIG. 9).

In assay [3] the test system is common carotid artery (CCA). Nature of the assay: Histological (H&E) and immunohistochemical (PECAM-1) staining of the CCAs. Conditions: for thrombus formation, histologic examination (H&E): 3 days. As for the experimental part:
The animal of Example 3 and Comparative Example 2 was anesthetized and sacrificed. Both CCAs of Example 3 and Comparative Example 2 were removed and washed in phosphate buffer solution, dehydrated on dry ice, and stored at −80° C. for 24 hours. Before sectioning, all CCAs were embedded in Optimal Cutting Temperature Compound (Tissue Tek, 4583) (Sakura Finetek USA, Inc., Torrance, Calif., USA) and stored at −80° C. for another 12 hours. Cross-sections of the CCAs of Example 3 and Comparative Example 2 (10 μm in thickness) were consecutively cut on a microtome-cryostat. Then, these sections were subjected to hematoxylin and eosin (H&E) staining for evaluation of thrombus formation. For immunohistochemical staining, the slides were treated with cold acetone for 10 minutes and then with methanol with 0.3% H2O2 for 10 minutes. After blocking endogenous peroxidase using a peroxidase blocking reagent (DAKO, Carpinteria, Calif., USA), the primary antibody (anti-PECAM-1 [anti-CD31]) (AbD Serotec, Dusseldorf, Germany) was applied at a dilution of 1:500 overnight at 4° C., followed by a universal immuno-peroxidase polymer (Histofine) (Cosmo Bio, Carlsbad, Calif., USA) for 1 hour at room temperature. Development of color was achieved by exposure for 2 minutes to the DAB chromogen system (DAKO). Endothelium cells were considered positive for PECAM-1 in the presence of intense brown staining.

The mark [4] stands for this setting: Example 3: intermittent 4.5 mW/cm2 LED.

On to `O=C([O-])c1c(Cl)c(Cl)c(Cl)c(Cl)c1-c1c2cc(I)c(=O)c(I)c-2oc2c(I)c([O-])c(I)cc12.[Na+].[Na+]` [rose bengal], for which the “thrombosis formation in the CCA (ultrasound)” value in assay [1] (Comparative Example 1: 60 mg/kg i.v., up to 7 days) is reported as “thrombosis did not form”; in assay [1] (Comparative Example 2: right CCA of the Example 3 rat, up to 7 days), “thrombosis was not formed”. The “thrombosis / occlusion of the CCA (ultrasound)” value was “disappeared within one day after irradiation” in assay [1] (Comparative Example 5: intermittent LED 4.0 mW/cm2 (2 h, off 30 min, 2 h), up to 1 day); “the artery became totally occluded one day after irradiation” in assay [1] (Comparative Example 6: intermittent LED 5.0 mW/cm2 (2 h, off 30 min, 2 h), up to 1 day); “totally occluded right after irradiation and total occlusion was maintained for 7 days” in assay [1] (Example 1: 60 mg/kg i.v., LED 540 nm, 6 mW/cm2 continuously for 4 hours, up to 7 days); “the formed thrombus gradually diminished 3 days after irradiation (Post OP 3d) and totally disappeared at 7 days after irradiation” in assay [1] (Example 2: 60 mg/kg i.v., LED 5 mW/cm2 continuously for 4 hours, up to 7 days); “the CCA was totally occluded at 7 days after irradiation” in assay [1] (Example 3: 60 mg/kg i.v., LED 4.5 mW/cm2 2 hours, off 30 minutes, 2 hours, up to 7 days). The “thrombus in the CCA (MRA / T2-weighted MRI)” value in assay [2] (immediately after irradiation) was “the thrombus appeared on the vessel wall”; in assay [2] (seven days after irradiation), “totally occluded”; in assay [2] (three days after irradiation), “enlarged and significantly disrupted blood flow”. Besides, the “endothelial cells, PECAM-1 staining” value in assay [3] (Comparative Example 2: non-irradiated CCA of the same rat) is “intact”; in assay [3] (setting [4]) it was “injured and discontinued”. Moreover, the “thrombus formation, histologic examination (H&E)” value is “formation of thrombus packed with red blood cells, leucocytes, and platelets” in assay [3] (setting [4]); “no thrombus formation was observed” in assay [3] (non-irradiated CCA of the same rat).
